Experimental data reported in patent publication US20230158066A1, “ENCAPSULATED CARBONYL IRON SALT COMPOSITIONS AND PROCESS THEREOF” (priority 2020, published 2023).

Experiment: Particle density (bulk density), USP <616> method 1
Assay type: physicochemical
Details: untapped powder, W/V0
Excerpt: Particle density or Bulk density is the density of the solids (determined by the composition), which determines the particle density, together with the amount of occluded air. It's the ratio of mass to volume (including the inter-particulate void volume) of an untapped powder sample. It depends on both the density of powder particle and arrangement of the particles. The bulk density influenced by preparation method, treatment and storage of the samples.
The method used as per the reference of USP general chapter <616> method 1. • 1. Pass a quantity of material sufficient to complete the test through sieve greater than equal to 1 mm, if necessary to break up agglomerates that may formed. • 2. Fill the test sample approx. 150 g with 0.1% accuracy (W) in dry gradual 250 mL cylinder (readable to 2 mL) carefully. • 3. Read the unsettled apparent volume (V0) to the nearest graduated unit. • 4. Calculate the particle density by following formula;

| Molecule | Particle density [g/mL] |
| --- | --- |
| O=C([O-])/C=C/C(=O)[O-].[Fe+2] [Ferrous fumarate] | 2.14 |
| Ferrous Ascorbate | 0.75 |
| Ferrous sulfate | 1.26 |
